Data taken from paper PMC8457062, “Beam Search for Automated Design and Scoring of Novel ROR Ligands with Machine Intelligence” (Angewandte Chemie (International Ed. in English), 2021).

Assays:
Assay type in all cases: cell-based
RORα = target: T1, RORα (Homo sapiens, UniProt P35398); experiment: Gal4-RORα hybrid reporter gene assay in HEK293T cells; conditions: for IC50: Gal4 hybrid reporter gene assay, inverse agonism, mean±S.E.M., n≥4
T1 construct: uniprot ID P35398-2, aa 266- 523; expressed in transfected cells; host or cells: HEK293T
T1 sequence (P35398 266-523): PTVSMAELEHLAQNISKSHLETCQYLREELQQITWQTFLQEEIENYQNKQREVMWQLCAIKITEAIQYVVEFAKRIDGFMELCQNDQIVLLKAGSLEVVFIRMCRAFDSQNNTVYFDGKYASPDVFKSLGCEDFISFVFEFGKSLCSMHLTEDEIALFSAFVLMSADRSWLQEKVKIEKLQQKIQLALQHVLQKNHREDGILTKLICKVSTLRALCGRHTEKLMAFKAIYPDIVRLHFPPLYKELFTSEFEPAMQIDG
Description: (§1) In vitro characterization of compounds 1, 2, and 3 in Gal4‐ROR hybrid reporter gene assays confirmed inverse RORγ agonism with micromolar to sub‐micromolar IC50 values (Table 1).
(§2) In vitro Characterization Methods
(§3) Hybrid reporter gene assays. The hybrid receptor plasmids pFA-CMV-hRORα-LBD (NR1F1, isoform 1, uniprot ID P35398-2, aa 266-523), pFA-CMV-hRORβ-LBD (NR1F2, isoform 2, uniprot ID Q92753-2, aa 216-470), and pFA-CMV-hRORγ-LBD (NR1F3, isoform 1, uniprot ID P51449, aa 263-518) encode the Gal4-DBD fused to the hinge region and ligand binding domain of the canonical isoform of the respective human nuclear receptor and were cloned as described previously[13,14] using cDNA from SourceBioScience (Nottingham, UK). The Gal4-responsive firefly luciferase reporter pFR-Luc (Stratagene, La Jolla, CA, USA) and pRL-SV40 (Promega, Madison, WI, USA; internal control) were used together with either pFA-CMV-NR-LBD clone for the hybrid reporter gene assays.
(§4) HEK293T cells (German Collection of Microorganisms and Cell Culture GmbH, DSMZ) were cultured in Dulbecco’s modified Eagle’s medium (DMEM), high glucose supplemented with 10 % fetal calf serum (FCS), sodium pyruvate (1 mM), penicillin (100 U/mL), and streptomycin (100 μg/mL) at 37 °C and 5 % CO2 and seeded in 96-well plates (3×10^4 cells/well) twenty-four hours prior to transfection. Before transfection, medium was changed to Opti -MEM without supplements and transient transfection with above mentioned plasmids (pFR-Luc, pRL-SV40 and one pFA-CMV-NR-LBD clone) was carried out with Lipofectamine LTX reagent (Invitrogen) according to the manufacturer’s protocol. Five hours after transfection, medium was changed to Opti -MEM supplemented with penicillin (100 U/mL) a nd streptomycin (100 μg/mL) additionally containing 0.1 % DMSO and the respective test compound or 0.1 % DMSO alone as untreated control. Each concentration was tested in duplicates and each experiment was repeated independently at least two times. Followi ng overnight (14−16 h) incubation, cells were assayed for luciferase activity using the Dual - Glo Luciferase Assay System (Promega) according to the manufacturer’s protocol. Luminescence was measured with a Tecan Spark luminometer (Tecan Deutschland GmbH, G ermany). Normalization of transfection efficiency and cell growth was done by division of firefly luciferase data by Renilla luciferase data and multiplying the value by 1000 resulting in relative light units (RLU). Fold reporter repression was obtained by dividing the mean RLU of a test compound at a respective concentration by the mean RLU of the 0.1% DMSO control. […]

RORβ = target: T2, RORβ (Homo sapiens, UniProt Q92753); experiment: Gal4-RORβ hybrid reporter gene assay in HEK293T cells; conditions: for IC50: Gal4 hybrid reporter gene assay, inverse agonism, mean±S.E.M., n≥4
T2 construct: uniprot ID Q92753-2, aa 216-470; expressed in transfected cells; host or cells: HEK293T
T2 sequence (Q92753 216-470): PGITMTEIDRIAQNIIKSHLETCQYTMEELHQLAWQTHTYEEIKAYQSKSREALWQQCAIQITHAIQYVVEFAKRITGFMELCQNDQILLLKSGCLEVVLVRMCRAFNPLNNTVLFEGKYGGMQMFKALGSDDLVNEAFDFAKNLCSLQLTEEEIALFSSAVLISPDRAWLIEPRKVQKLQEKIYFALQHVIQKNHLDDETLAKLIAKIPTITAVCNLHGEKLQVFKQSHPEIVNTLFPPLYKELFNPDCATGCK
Description: as §1, §2, §3, §4

RORγ = target: T3, RORγ (Homo sapiens, UniProt P51449); experiment: Gal4-RORγ hybrid reporter gene assay in HEK293T cells; conditions: for IC50: Gal4 hybrid reporter gene assay, inverse agonism, mean±S.E.M., n≥4; for potency on RORγ compared to the related RORα and RORβ isoforms (subtype preference): Gal4 hybrid reporter gene assays
T3 construct: uniprot ID P51449, aa 263-518; expressed in transfected cells; host or cells: HEK293T
T3 sequence (P51449 263-518): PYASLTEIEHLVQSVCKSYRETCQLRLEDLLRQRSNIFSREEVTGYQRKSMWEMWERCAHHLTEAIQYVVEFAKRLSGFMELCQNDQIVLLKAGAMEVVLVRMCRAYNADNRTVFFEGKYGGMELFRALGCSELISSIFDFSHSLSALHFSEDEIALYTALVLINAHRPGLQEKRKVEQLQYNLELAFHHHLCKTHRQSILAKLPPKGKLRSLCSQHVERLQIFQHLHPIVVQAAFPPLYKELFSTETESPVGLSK
Description: as §1, §2, §3
HEK293T cells (German Collection of Microorganisms and Cell Culture GmbH, DSMZ) were cultured in Dulbecco’s modified Eagle’s medium (DMEM), high glucose supplemented with 10 % fetal calf serum (FCS), sodium pyruvate (1 mM), penicillin (100 U/mL), and streptomycin (100 μg/mL) at 37 °C and 5 % CO2 and seeded in 96-well plates (3×10^4 cells/well) twenty-four hours prior to transfection. Before transfection, medium was changed to Opti -MEM without supplements and transient transfection with above mentioned plasmids (pFR-Luc, pRL-SV40 and one pFA-CMV-NR-LBD clone) was carried out with Lipofectamine LTX reagent (Invitrogen) according to the manufacturer’s protocol. Five hours after transfection, medium was changed to Opti -MEM supplemented with penicillin (100 U/mL) a nd streptomycin (100 μg/mL) additionally containing 0.1 % DMSO and the respective test compound or 0.1 % DMSO alone as untreated control. Each concentration was tested in duplicates and each experiment was repeated independently at least two times. Followi ng overnight (14−16 h) incubation, cells were assayed for luciferase activity using the Dual - Glo Luciferase Assay System (Promega) according to the manufacturer’s protocol. Luminescence was measured with a Tecan Spark luminometer (Tecan Deutschland GmbH, G ermany). Normalization of transfection efficiency and cell growth was done by division of firefly luciferase data by Renilla luciferase data and multiplying the value by 1000 resulting in relative light units (RLU). Fold reporter repression was obtained by dividing the mean RLU of a test compound at a respective concentration by the mean RLU of the 0.1% DMSO control. IC 50 values were obtained by plotting fold reporter activation vs test compound concentrations and fitting the resulting sigmoidal curve with a four-parameter logistic regression in SigmaPlot 12.5 (Systat Software GmbH, Erkrath, Germany). The Gal4 - ROR hybrid assays were validated with the reference inverse agonists SR1001 and SR1078 , which yielded IC50 values in agreement […]
(1 picture or pasted object on this page, not shown here)

[1] = precise IC50 could not be determined due to cytotoxicity

Structure (SMILES)	IC50 (RORα) [µM]	activity on RORα (in words) (RORα; [1])	IC50 (RORβ) [µM]	activity on RORβ (in words) (RORβ; [1])	IC50 (RORγ) [nM]	potency on RORγ compared to the related RORα and RORβ isoforms (subtype preference) (RORγ)
O=C1CC2(CCCC2)CC(=O)N1CCCCN1CCN(c2ccc(Cl)cc2)CC1 [Compound 1]	> 10	additionally active	> 10	additionally active	4600 ± 500	
O=S(=O)(Cc1ccccc1)N(Cc1ccc(N2CCC(C(F)(F)F)CC2)cc1F)C1CCC1 [Compound 2]	23 ± 3		22 ± 1		370 ± 50	more than tenfold higher potency
O=S(=O)(Cc1ccccc1)N(Cc1ccc(N2CCC(C(F)(F)F)CC2)cc1)C1CCC1 [Compound 3]	10 ± 1		7.6 ± 0.5		680 ± 70	more than tenfold higher potency
